Data on one compound can be found in patent US4820836A, “Prostacyclin (PGI2) analogues” (Shionogi & Co., Ltd., priority 1986, dated 1989).

Like-named read-outs stand apart in the source and are kept apart here.

The assay relates to Platelet Agglutination. Kind of assay: In vitro inhibition of platelet agglutination (rabbit platelet rich plasma, aggregometer) induced by arachidonic acid, collagen or ADP. The format is cell-based. To be noted: Oryctolagus cuniculus, rabbit PRP, Tris buffer. On the procedure:
The inhibitory activity of the representative compounds of the present invention against platelet agglutination is shown in the following in vitro test.
Mature male rabbits (NIBS-JW, RABITON Institute Inc., weighing 2.2-2.7 kg) were used. Under sodium pentobarbital anesthesia (Somnopentyl, Pitman Movre, about 25 mg/Kg, i.v.), blood was with from the carotid artery by cannulation into centrifuge tubes containg 1/10 vol of a 3.8% sodium citrate solution. (The total volume in each tube was adjusted to 8 ml.) The blood in a tube was gentyl mixed by turing and centrifuged for 10 minutes at 210 g at 20° C. to give platelet rich plasma (PRP). The remaining blood was further centrifuged at 3,000 rpm (about 1,900 g) for 10 minutes at 20° C. to give platelet-poor plasma (PPP).
PRP was diluted with PPP to prepare a blood sample whose platelet number was 50-55×10^4 /μl. The sample was then subjected to a platelet agglutination test.
The platelet agglutination was examined by the method of Bron [Born, G.V.R., Nature, 194, 927-929 (1962)], using a Type AUTO RAM-61 aggregometer, (Rika Denki Co., Ltd., Tokyo). A volume of 400 μl of PRP, whose platelet number was adjusted to 50-55×10^4 /μl, was placed in a measuring cuvette and set in the aggregometer. PRP was warmed at 37° C. for 1 minute with stirring at 1,200 rpm, and then a solution of the test compound [dimethylsulfoxide solution (2 μl) of the compound+saline (48 μl); in case of prostaglandin I2 (PGI2) and prostaglandin E1 (PG E1), a solution of each compound (50 μl) in Tris buffer] was added thereto. Exactly 2 minutes later, 50 μl of ADP Pharmacia, U.S.A., (final concentration: 30 μM) or collagen (final muchen, muchen, concentration: 20 μg/ml) or arachidonic acid (sodium salt, Sigma, final concentration (500 μM) was added as a platelet agglutinating agent, and the change in light transmission caused by platelet agglutination was recorded.
The light transmissions of PRP and PPP were taken as 0% and 100% agglutination, respectively, and the maximum light transmission after addition of an agglutinating agent was made to the maxiumum agglutination. The inhibition rate of the platelet agglutination was expressed as the percentage of the maximum agglutination by a test compound to that by a control (Vehicle added group).
Prostaglandin (PG) I2 and E1 are served as standard substances.

On to `CCCCC[C@H](O)/C=C/[C@@H]1[C@H]2C/C(=C/CCCC(=O)O)O[C@H]2C[C@H]1O` [PGI2, prostaglandin I2], for which the IC50 was found to be 0.014 µM (pH 8, ADP, final 30 μM, pH8.0, read-out: Inhibition Activity against Platelet Agglutination [50% Inhibition Concentration (μM)], ADP); 0.054 µM (pH 8, arachidonic acid, final 500 μM, pH8.0, read-out: Inhibition Activity against Platelet Agglutination [50% Inhibition Concentration (μM)], Arachidonic acid); 0.019 µM (pH 8, collagen, final 20 μg/ml, pH8.0, read-out: Inhibition Activity against Platelet Agglutination [50% Inhibition Concentration (μM)], Collagen); 0.016 µM (pH 10, ADP, final 30 μM, pH10.0, read-out: Inhibition Activity against Platelet Agglutination [50% Inhibition Concentration (μM)], ADP); 0.09 µM (pH 10, arachidonic acid, final 500 μM, pH10.0, read-out: Inhibition Activity against Platelet Agglutination [50% Inhibition Concentration (μM)], Arachidonic acid); 0.02 µM (pH 10, collagen, final 20 μg/ml, pH10.0, read-out: Inhibition Activity against Platelet Agglutination [50% Inhibition Concentration (μM)], Collagen).
